Measured values published in article PMC11455612 (Cell, 2024).
pIC50: −log10 of the molar value.

What was measured:
[1] = biological target: phosphatidylserine synthase 1 (PSS1) (Homo sapiens, UniProt P48651); assay: cryo-EM structure at […] Å; assay type: biochemical
[2] = biological target: phosphatidylserine synthase 1 (PSS1) (Homo sapiens, UniProt P48651, P269S); assay type: biochemical

`CC(F)(F)CN1C(=O)c2[nH]nc(-c3cccc4[nH]c(=O)oc34)c2[C@@H]1c1ccc(Oc2cc(C(F)(F)F)cc(C(F)(F)F)c2)cc1` [DS, DS55980254] showed a pIC50 [1] of 5.78 and a pIC50 [2] of 5.90.
